For the assay, the target named is T1, CYP4A (Homo sapiens, UniProt Q02928).
T1 construct: host or cells: bactosome, i.e. bacterial membrane preparation (own knowledge of the term)
T1 sequence (Q02928 5-519): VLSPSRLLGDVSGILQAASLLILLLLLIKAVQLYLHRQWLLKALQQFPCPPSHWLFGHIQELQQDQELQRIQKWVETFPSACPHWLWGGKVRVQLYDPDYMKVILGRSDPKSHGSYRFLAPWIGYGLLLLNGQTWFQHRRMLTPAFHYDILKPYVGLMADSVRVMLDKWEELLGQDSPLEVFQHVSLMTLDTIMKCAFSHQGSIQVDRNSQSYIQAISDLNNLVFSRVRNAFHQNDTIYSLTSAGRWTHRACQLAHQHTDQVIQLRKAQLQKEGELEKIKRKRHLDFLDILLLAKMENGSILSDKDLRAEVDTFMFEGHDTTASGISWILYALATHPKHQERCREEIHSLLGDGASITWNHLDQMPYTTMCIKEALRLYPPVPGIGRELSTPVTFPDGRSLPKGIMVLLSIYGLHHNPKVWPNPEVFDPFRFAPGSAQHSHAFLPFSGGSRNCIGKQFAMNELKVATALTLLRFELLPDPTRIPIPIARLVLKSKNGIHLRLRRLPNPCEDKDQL
Briefly: CYP4A enzyme assay (Luciferin-ME luminescence, CYP4A bactosome). The assay is classed as biochemical. To be noted: compound concentration 5 μM. The protocol:
A commercially available reagent was used for the reagent used in the experiment, and it was manufactured and used if necessary. The device used for activity measurement was EnVision of PerkinElmer or SpectraMax of MOLECULAR DEVICES.
First, CYP4A bactosome and synthetic compound (5 μM) were mixed in assay buffer (100 mM KPO4, 0.1% BSA, 1 mM DTT) in a 384-well plate (white opaque ploystyrene nontreated flat-bottom well), and then reacted at room temperature for 15 minutes. After adding 5 mM Luciferin-ME and NADPH Regeneration system (10× sol.A, 20× sol.B in assay buffer, Cat. Number: V865B, Promega), leave it at room temperature for 30 minutes to allow the CYP4A reaction to occur sufficiently, by adding the Luciferin Detection reagent, the CYP4A reaction was finished, luminescence reaction was induced, and the reaction was carried out at room temperature for 15 minutes. The degree of inhibition of CYP4A activity was measured by comparing the luminescence values from each well with a microplate reader.

Setting [1] is: 75% or more, read-out: % Inhibition 75% or more.
Where [2] appears, read: '50%-75%', read-out: % Inhibition 50%-75%.
The mark [3] stands for this setting: 25%-50%, read-out: % Inhibition 25%-50%.

The source of these data is US12479821B2 (MBD CO., LTD., priority 2019, dated 2025).

The inhibition is the change of the read-out against control, counted positive when it falls.

Molecules are shown by their SMILES. Where two headings read alike, the source gives them in different places. Some results are limits rather than exact numbers.

As to `CN(C)c1ccc(S(=O)(=O)N2CCCC(C(=O)N3CCN(c4ccnc5cc(F)ccc45)CC3)C2)cc1` (centres unmarked), the inhibition at 5 µM under setting [1] was at least 75%.
`CN(C)c1ccc(S(=O)(=O)N2CCC[C@H](C(=O)N3CCN(c4ccnc5cc(F)ccc45)CC3)C2)cc1`: the inhibition at 5 µM under setting [1] was at least 75%.
Regarding `O=C(C1CCCN(S(=O)(=O)c2ccccc2)C1)N1CCN(c2ccnc3cc(Cl)ccc23)CC1` (centres unmarked) [Formula 1, (4-(7-chloroquinolin-4-yl)piperazin-1-yl) (1-(phenylsulfonyl)piperidin-3-yl) methanone], the inhibition at 5 µM under setting [2] fell in the range of 50 to 75%.
On the same count and under the same terms, with `Cc1ccc(S(=O)(=O)N2CCCC(C(=O)N3CCN(c4ccnc5cc(Cl)ccc45)CC3)C2)cc1` (centres unmarked) [Formula 2, (4-(7-chloroquinolin-4-yl)piperazin-1-yl) (1-tosylpiperidin-3-yl) methanone] the figure was 50 to 75%; with `O=C(C1CCCN(S(=O)(=O)c2ccc(F)cc2)C1)N1CCN(c2ccnc3cc(Cl)ccc23)CC1` (centres unmarked) [Formula 3, (4-(7-chloroquinolin-4-yl)piperazin-1-yl) (1-((4-fluorophenyl)sulfonyl)piperidin-3-yl) methanone], 50 to 75%.
For the molecule `CN(C)c1ccc(S(=O)(=O)N2CCCC(C(=O)N3CCN(c4ccnc5cc(Cl)ccc45)CC3)C2)cc1` (centres unmarked) [Formula 4, (4-(7-chloroquinolin-4-yl)piperazin-1-yl) (1-((4-(dimethylamino)phenyl)sulfonyl)piperidin-3-yl) methanone], under setting [1], the inhibition at 5 µM was at least 75%.
With `O=C(C1CCCN(S(=O)(=O)c2ccc(O)cc2)C1)N1CCN(c2ccnc3cc(Cl)ccc23)CC1` (centres unmarked) [Formula 5, (4-(7-chloroquinolin-4-yl)piperazin-1-yl) (1-((4-hydroxyphenyl)sulfonyl)piperidin-3-yl) methanone], under setting [1], the inhibition at 5 µM was at least 75%.
On the same count and under the same terms, for `O=C(C1CCCN(S(=O)(=O)c2cccc([N+](=O)[O-])c2)C1)N1CCN(c2ccnc3cc(Cl)ccc23)CC1` (centres unmarked) [Formula 6, (4-(7-chloroquinolin-4-yl)piperazin-1-yl) (1-((3-nitrophenyl)sulfonyl)piperidin-3-yl) methanone] the value was at least 75%; for `O=C(C1CCCN(S(=O)(=O)c2ccc(C(F)(F)F)cc2)C1)N1CCN(c2ccnc3cc(Cl)ccc23)CC1` (centres unmarked) [Formula 7, (4-(7-chloroquinolin-4-yl)piperazin-1-yl) (1-((4-(trifluoromethyl)phenyl)sulfonyl)piperidin-3-yl) methanone], at least 75%.
With `O=C(C1CCCN(S(=O)(=O)c2cccc(F)c2)C1)N1CCN(c2ccnc3cc(Cl)ccc23)CC1` (centres unmarked) [Formula 8, (4-(7-chloroquinolin-4-yl)piperazin-1-yl) (1-((3-fluorophenyl)sulfonyl)piperidin-3-yl) methanone], the inhibition at 5 µM under setting [2] was in the range of 50 to 75%.
Still for that read-out and setting: for `O=C(C1CCCN(S(=O)(=O)c2ccc(Oc3ccccc3)cc2)C1)N1CCN(c2ccnc3cc(Cl)ccc23)CC1` (centres unmarked) [Formula 9, (4-(7-chloroquinolin-4-yl)piperazin-1-yl) (1-((4-phenoxyphenyl)sulfonyl)piperidin-3-yl) methanone] the value was 50 to 75%.
Consider `N#Cc1ccc(S(=O)(=O)N2CCCC(C(=O)N3CCN(c4ccnc5cc(Cl)ccc45)CC3)C2)cc1` (centres unmarked) [Formula 10, 4-(3-(1-(7-chloroquinolin-4-yl)piperazine-4-carbonyl)piperidin-1-ylsulfonyl)benzonitrile], for which the inhibition at 5 µM under setting [1] is at least 75%.
`CS(=O)(=O)c1ccc(S(=O)(=O)N2CCCC(C(=O)N3CCN(c4ccnc5cc(Cl)ccc45)CC3)C2)cc1` (centres unmarked) [Formula 11, (4-(7-chloroquinolin-4-yl)piperazin-1-yl) (1-(4-(methylsulfonyl)phenylsulfonyl)piperidin-3-yl) methanone]: the inhibition at 5 µM under setting [1] was at least 75%.
As for `COC(=O)c1ccc(S(=O)(=O)N2CCCC(C(=O)N3CCN(c4ccnc5cc(Cl)ccc45)CC3)C2)cc1` (centres unmarked) [Formula 12, methyl 4-((3-(1-(7-chloroquinolin-4-yl)piperazine-1-carbonyl)piperidin-1-yl)sulfonyl)benzoate], the inhibition at 5 µM under setting [2] was 50 to 75%.
Still for that read-out and setting: with `O=C(C1CCCN(S(=O)(=O)c2ccc(-c3ccccc3)cc2)C1)N1CCN(c2ccnc3cc(Cl)ccc23)CC1` (centres unmarked) [Formula 13, (4-(7-chloroquinolin-4-yl)piperazin-1-yl) (1-(4-phenylbenzenesulfonyl)piperidin-3-yl) methanone] the figure was 50 to 75%.
With `COc1cccc(S(=O)(=O)N2CCCC(C(=O)N3CCN(c4ccnc5cc(Cl)ccc45)CC3)C2)c1` (centres unmarked) [Formula 14], under setting [1], the inhibition at 5 µM is at least 75%.
On the same count and under the same terms, for `CC(=O)Nc1ccc(S(=O)(=O)N2CCCC(C(=O)N3CCN(c4cc(C)nc5ccccc45)CC3)C2)cc1` (centres unmarked) [Formula 15, N-(4-(3-(1-(2-methylquinolin-4-yl)piperazine-4-carbonyl)piperidin-1-ylsulfonyl)phenyl) acetamide] the value was at least 75%.
Same read-out and setting: for `CC(=O)Nc1ccc(S(=O)(=O)N2CCC[C@@H](C(=O)N3CCN(c4cc(C)nc5ccccc45)CC3)C2)cc1` [Formula 16, (R)—N-(4-((3-(4-(2-methylquinolin-4-yl)piperazine-1-carbonyl)piperidin-1-yl)sulfonyl)phenyl) acetamide] the value was at least 75%.
As to `CC(=O)Nc1ccc(S(=O)(=O)N2CCC[C@H](C(=O)N3CCN(c4cc(C)nc5ccccc45)CC3)C2)cc1` [Formula 17, (S)—N-(4-((3-(4-(2-methylquinolin-4-yl)piperazine-1-carbonyl)piperidin-1-yl)sulfonyl)phenyl) acetamide], the inhibition at 5 µM under setting [2] lay within 50 to 75%.
With `Cc1cc(N2CCN(C(=O)C3CCCN(S(=O)(=O)c4ccc([N+](=O)[O-])cc4)C3)CC2)c2ccccc2n1` (centres unmarked) [Formula 18, (4-(2-methylquinolin-4-yl)piperazin-1-yl) (1-(4-nitrophenylsulfonyl)piperidin-3-yl) methanone], the inhibition at 5 µM under setting [1] is at least 75%.
With `Cc1cc(N2CCN(C(=O)C3CCCN(S(=O)(=O)c4ccccc4)C3)CC2)c2ccccc2n1` (centres unmarked) [Formula 19, (4-(2-methylquinolin-4-yl)piperazin-1-yl) (1-(phenylsulfonyl)piperidin-3-yl) methanone], under setting [3], the inhibition at 5 µM fell in the range of 25 to 50%.
The same measure, in the same setting: for `Cc1ccc(S(=O)(=O)N2CCCC(C(=O)N3CCN(c4cc(C)nc5ccccc45)CC3)C2)cc1` (centres unmarked) [Formula 20, (4-(2-methylquinolin-4-yl)piperazin-1-yl) (1-tosylpiperidin-3-yl) methanone] the value was 25 to 50%; for `Cc1cccc(S(=O)(=O)N2CCCC(C(=O)N3CCN(c4cc(C)nc5ccccc45)CC3)C2)c1` (centres unmarked) [Formula 21, (4-(2-methylquinolin-4-yl)piperazin-1-yl) (1-(m-tolylsulfonyl)piperidin-3-yl) methanone], 25 to 50%; for `Cc1cc(N2CCN(C(=O)C3CCCN(S(=O)(=O)c4ccc(C)c(C)c4)C3)CC2)c2ccccc2n1` (centres unmarked) [Formula 22, (1-((3,4-dimethylphenyl)sulfonyl)piperidin-3-yl) (4-(2-methylquinolin-4-yl)piperazin-1-yl) methanone], 25 to 50%.
Still for that read-out and setting: for `CCc1ccc(S(=O)(=O)N2CCCC(C(=O)N3CCN(c4cc(C)nc5ccccc45)CC3)C2)cc1` (centres unmarked) [Formula 23, (1-(4-ethylphenylsulfonyl)piperidin-3-yl) (4-(2-methylquinolin-4-yl)piperazin-1-yl) methanone] the value was 25 to 50%.
With `Cc1cc(N2CCN(C(=O)C3CCCN(S(=O)(=O)c4ccc(F)cc4)C3)CC2)c2ccccc2n1` (centres unmarked) [Formula 24, (1-((4-fluorophenyl)sulfonyl)piperidin-3-yl) (4-(2-methylquinolin-4-yl)piperazin-1-yl) methanone], the inhibition at 5 µM under setting [2] lay in the range of 50 to 75%.
The same measure, in the same setting: for `Cc1cc(N2CCN(C(=O)C3CCCN(S(=O)(=O)c4ccc(Cl)cc4)C3)CC2)c2ccccc2n1` (centres unmarked) [Formula 25, (1-(4-chlorophenylsulfonyl)piperidin-3-yl) (4-(2-methylquinolin-4-yl)piperazin-1-yl) methanone] the value was 50 to 75%.
On the same count and under the same terms, with `Cc1cc(N2CCN(C(=O)C3CCCN(S(=O)(=O)c4ccc(C(F)(F)F)cc4)C3)CC2)c2ccccc2n1` (centres unmarked) [Formula 26, (4-(2-methylquinolin-4-yl)piperazin-1-yl) (1-(4-(trifluoromethyl)phenylsulfonyl)piperidin-3-yl) methanone] the figure was 50 to 75%; with `Cc1cc(N2CCN(C(=O)C3CCCN(S(=O)(=O)c4cccc(F)c4)C3)CC2)c2ccccc2n1` (centres unmarked) [Formula 27, (1-(3-fluorophenylsulfonyl)piperidin-3-yl) (4-(2-methylquinolin-4-yl)piperazin-1-yl) methanone], 50 to 75%.
